Assay results as given in ChEMBL document CHEMBL4765323, “Design, synthesis, and biological evaluation of novel miconazole analogues containing selenium as potent antifungal agents” (Eur J Med Chem, 2020).
≈ marks a conversion by molar mass, not a printed value.

Assays:
Format in all cases: functional
Candida albicans [1] = assay: Antifungal activity against Candida albicans CPCC400616 measured after 24 hrs by micro-broth dilution assay
Candida albicans [2] = assay: Antifungal activity against Candida albicans ATCC SC5314 measured after 24 hrs by micro-broth dilution assay
[Candida] zeylanoides = Antifungal activity against Candida zeylanoides CMGCC2.3739 measured after 24 hrs by micro-broth dilution assay; settings: Dujonia zeylanoides
Cryptococcus neoformans = assay: Antifungal activity against Cryptococcus neoformans CGMCC2.3161 measured after 72 hrs by micro-broth dilution assay
Pichia kudriavzevii = assay: Antifungal activity against Candida krusei AS 2.1045 measured after 24 hrs by micro-broth dilution assay
Nakaseomyces glabratus = assay: Antifungal activity against clinical isolate Candida glabrata measured after 24 hrs by micro-broth dilution assay
Candida parapsilosis = assay: Antifungal activity against Candida parapsilosis ATCC 22019 measured after 24 hrs by micro-broth dilution assay; settings: Lodderomyces parapsilosis
Aspergillus fumigatus = assay: Antifungal activity against Aspergillus fumigatus CGMCC 3.7795 measured after 72 hrs by micro-broth dilution assay
Candida albicans [3] = assay: Antifungal activity against fluconazole-resistant Candida albicans CaR measured after 24 hrs by micro-broth dilution assay
Candida albicans [4] = assay: Antifungal activity against fluconazole-resistant Candida albicans 17 measured after 24 hrs by micro-broth dilution assay
Candida albicans [5] = assay: Antifungal activity against fluconazole-resistant Candida albicans 632 measured after 24 hrs by micro-broth dilution assay
Candida albicans [6] = assay: Antifungal activity against Candida albicans 901 measured after 24 hrs by micro-broth dilution assay
Candida albicans [7] = assay: Antifungal activity against fluconazole-resistant Candida albicans strain 904 measured after 24 hrs by micro-broth dilution assay

Compound `COc1ccc(C[Se]C(Cn2ccnc2)c2ccc(Cl)cc2Cl)cc1` (stereo not given) has an MIC (Candida albicans [1]) of 0.13 µg/mL (≈ 0.295 µM), an MIC (Candida albicans [2]) of 0.13 µg/mL (≈ 0.295 µM) and an MIC ([Candida] zeylanoides) of 8 µg/mL (≈ 18.2 µM). It also gave an MIC (Cryptococcus neoformans) of 0.25 µg/mL (≈ 0.568 µM), an MIC (Pichia kudriavzevii) of 8 µg/mL (≈ 18.2 µM) and an MIC (Nakaseomyces glabratus) of 0.5 µg/mL (≈ 1.14 µM). It also gave an MIC (Candida parapsilosis) of 0.5 µg/mL (≈ 1.14 µM), an MIC (Aspergillus fumigatus) of 1 µg/mL (≈ 2.27 µM) and an MIC (Candida albicans [3]) of 32 µg/mL (≈ 72.7 µM). It also gave an MIC (Candida albicans [4]) of 16 µg/mL (≈ 36.3 µM), an MIC (Candida albicans [5]) of 128 µg/mL (≈ 291 µM) and an MIC (Candida albicans [6]) of 16 µg/mL (≈ 36.3 µM). The MIC (Candida albicans [7]) was 128 µg/mL (≈ 291 µM).

`COc1cccc(C[Se]C(Cn2ccnc2)c2ccc(F)cc2F)c1` (stereo not given) showed an MIC (Candida albicans [1]) of 0.06 µg/mL (≈ 0.147 µM), an MIC (Candida albicans [2]) of 0.13 µg/mL (≈ 0.319 µM) and an MIC ([Candida] zeylanoides) of 1 µg/mL (≈ 2.46 µM). The MIC (Cryptococcus neoformans) was 0.5 µg/mL (≈ 1.23 µM), the MIC (Pichia kudriavzevii) was 2 µg/mL (≈ 4.91 µM) and the MIC (Nakaseomyces glabratus) was 1 µg/mL (≈ 2.46 µM). For the same compound, the MIC (Candida parapsilosis) was 0.5 µg/mL (≈ 1.23 µM), the MIC (Aspergillus fumigatus) was 2 µg/mL (≈ 4.91 µM) and the MIC (Candida albicans [3]) was 4 µg/mL (≈ 9.82 µM). For the same compound, the MIC (Candida albicans [4]) was 16 µg/mL (≈ 39.3 µM), the MIC (Candida albicans [5]) was 2 µg/mL (≈ 4.91 µM) and the MIC (Candida albicans [6]) was 8 µg/mL (≈ 19.6 µM). The MIC (Candida albicans [7]) was 16 µg/mL (≈ 39.3 µM).

`Clc1ccc(C(Cn2ccnc2)[Se]Cc2ccc(Br)cc2)c(Cl)c1` (stereo not given) showed an MIC (Candida albicans [1]) of 0.25 µg/mL (≈ 0.511 µM), an MIC (Candida albicans [2]) of 0.06 µg/mL (≈ 0.123 µM) and an MIC ([Candida] zeylanoides) of 2 µg/mL (≈ 4.09 µM). For the same compound, the MIC (Cryptococcus neoformans) was 0.5 µg/mL (≈ 1.02 µM), the MIC (Pichia kudriavzevii) was 32 µg/mL (≈ 65.4 µM) and the MIC (Nakaseomyces glabratus) was 0.5 µg/mL (≈ 1.02 µM). The MIC (Candida parapsilosis) was 4 µg/mL (≈ 8.18 µM), the MIC (Aspergillus fumigatus) was 1 µg/mL (≈ 2.04 µM) and the MIC (Candida albicans [3]) was 128 µg/mL (≈ 262 µM). The MIC (Candida albicans [4]) was 8 µg/mL (≈ 16.4 µM), the MIC (Candida albicans [5]) was > 128 µg/mL and the MIC (Candida albicans [6]) was 64 µg/mL (≈ 131 µM). For the same compound, the MIC (Candida albicans [7]) was 128 µg/mL (≈ 262 µM).

`Cc1ccc(C[Se]C(Cn2ccnc2)c2ccc(Cl)cc2Cl)cc1C` (stereo not given) was tested, and the MIC (Candida albicans [1]) was 0.25 µg/mL (≈ 0.57 µM), the MIC (Candida albicans [2]) was 4 µg/mL (≈ 9.13 µM) and the MIC ([Candida] zeylanoides) was 128 µg/mL (≈ 292 µM). For the same compound, the MIC (Cryptococcus neoformans) was 0.5 µg/mL (≈ 1.14 µM), the MIC (Pichia kudriavzevii) was 128 µg/mL (≈ 292 µM) and the MIC (Nakaseomyces glabratus) was 0.5 µg/mL (≈ 1.14 µM). For the same compound, the MIC (Candida parapsilosis) was > 128 µg/mL, the MIC (Aspergillus fumigatus) was 4 µg/mL (≈ 9.13 µM) and the MIC (Candida albicans [3]) was 128 µg/mL (≈ 292 µM). It also gave an MIC (Candida albicans [4]) of 8 µg/mL (≈ 18.3 µM), an MIC (Candida albicans [5]) of 16 µg/mL (≈ 36.5 µM) and an MIC (Candida albicans [6]) of 32 µg/mL (≈ 73 µM). For the same compound, the MIC (Candida albicans [7]) was 128 µg/mL (≈ 292 µM).

Compound `COc1ccc(C[Se]C(Cn2ccnc2)c2ccc(F)cc2F)cc1` (stereo not given) has an MIC (Candida albicans [1]) of 0.25 µg/mL (≈ 0.614 µM), an MIC (Candida albicans [2]) of 0.13 µg/mL (≈ 0.319 µM) and an MIC ([Candida] zeylanoides) of 2 µg/mL (≈ 4.91 µM). The MIC (Cryptococcus neoformans) was 0.5 µg/mL (≈ 1.23 µM), the MIC (Pichia kudriavzevii) was 2 µg/mL (≈ 4.91 µM) and the MIC (Nakaseomyces glabratus) was 0.5 µg/mL (≈ 1.23 µM). For the same compound, the MIC (Candida parapsilosis) was 0.25 µg/mL (≈ 0.614 µM), the MIC (Aspergillus fumigatus) was 1 µg/mL (≈ 2.46 µM) and the MIC (Candida albicans [3]) was 8 µg/mL (≈ 19.6 µM). It also gave an MIC (Candida albicans [4]) of 8 µg/mL (≈ 19.6 µM), an MIC (Candida albicans [5]) of 8 µg/mL (≈ 19.6 µM) and an MIC (Candida albicans [6]) of 8 µg/mL (≈ 19.6 µM). It also gave an MIC (Candida albicans [7]) of 2 µg/mL (≈ 4.91 µM).

Compound `COc1cc(C[Se]C(Cn2ccnc2)c2ccc(Cl)cc2Cl)cc(OC)c1` (stereo not given) has an MIC (Candida albicans [1]) of 0.13 µg/mL (≈ 0.276 µM), an MIC (Candida albicans [2]) of 0.13 µg/mL (≈ 0.276 µM) and an MIC ([Candida] zeylanoides) of 1 µg/mL (≈ 2.13 µM). For the same compound, the MIC (Cryptococcus neoformans) was 0.5 µg/mL (≈ 1.06 µM), the MIC (Pichia kudriavzevii) was 8 µg/mL (≈ 17 µM) and the MIC (Nakaseomyces glabratus) was 0.25 µg/mL (≈ 0.532 µM). For the same compound, the MIC (Candida parapsilosis) was 0.5 µg/mL (≈ 1.06 µM), the MIC (Aspergillus fumigatus) was 1 µg/mL (≈ 2.13 µM) and the MIC (Candida albicans [3]) was 4 µg/mL (≈ 8.51 µM). The MIC (Candida albicans [4]) was 32 µg/mL (≈ 68 µM), the MIC (Candida albicans [5]) was 32 µg/mL (≈ 68 µM) and the MIC (Candida albicans [6]) was 4 µg/mL (≈ 8.51 µM). For the same compound, the MIC (Candida albicans [7]) was 128 µg/mL (≈ 272 µM).

With `Cc1ccc(C[Se]C(Cn2ccnc2)c2ccc(Cl)cc2Cl)cc1` (stereo not given) the MIC (Candida albicans [1]) was 0.03 µg/mL (≈ 0.0707 µM), the MIC (Candida albicans [2]) was 0.13 µg/mL (≈ 0.306 µM) and the MIC ([Candida] zeylanoides) was 16 µg/mL (≈ 37.7 µM). For the same compound, the MIC (Cryptococcus neoformans) was 0.25 µg/mL (≈ 0.589 µM), the MIC (Pichia kudriavzevii) was 4 µg/mL (≈ 9.43 µM) and the MIC (Nakaseomyces glabratus) was 1 µg/mL (≈ 2.36 µM). For the same compound, the MIC (Candida parapsilosis) was 1 µg/mL (≈ 2.36 µM), the MIC (Aspergillus fumigatus) was 2 µg/mL (≈ 4.71 µM) and the MIC (Candida albicans [3]) was 16 µg/mL (≈ 37.7 µM). It also gave an MIC (Candida albicans [4]) of 32 µg/mL (≈ 75.4 µM), an MIC (Candida albicans [5]) of 128 µg/mL (≈ 302 µM) and an MIC (Candida albicans [6]) of 64 µg/mL (≈ 151 µM). The MIC (Candida albicans [7]) was > 128 µg/mL.

`Cc1ccc(C[Se]C(Cn2ccnc2)c2ccc(F)cc2F)cc1` (stereo not given) gave an MIC (Candida albicans [1]) of 0.25 µg/mL (≈ 0.639 µM), an MIC (Candida albicans [2]) of 0.06 µg/mL (≈ 0.153 µM) and an MIC ([Candida] zeylanoides) of 0.5 µg/mL (≈ 1.28 µM). For the same compound, the MIC (Cryptococcus neoformans) was 0.5 µg/mL (≈ 1.28 µM), the MIC (Pichia kudriavzevii) was 2 µg/mL (≈ 5.11 µM) and the MIC (Nakaseomyces glabratus) was 1 µg/mL (≈ 2.56 µM). For the same compound, the MIC (Candida parapsilosis) was 0.25 µg/mL (≈ 0.639 µM), the MIC (Aspergillus fumigatus) was 1 µg/mL (≈ 2.56 µM) and the MIC (Candida albicans [3]) was 16 µg/mL (≈ 40.9 µM). For the same compound, the MIC (Candida albicans [4]) was 2 µg/mL (≈ 5.11 µM), the MIC (Candida albicans [5]) was 16 µg/mL (≈ 40.9 µM) and the MIC (Candida albicans [6]) was 1 µg/mL (≈ 2.56 µM). It also gave an MIC (Candida albicans [7]) of 4 µg/mL (≈ 10.2 µM).

`Cc1cccc(C[Se]C(Cn2ccnc2)c2ccc(F)cc2F)c1` (stereo not given) was tested, and the MIC (Candida albicans [1]) was 0.13 µg/mL (≈ 0.332 µM), the MIC (Candida albicans [2]) was 0.06 µg/mL (≈ 0.153 µM) and the MIC ([Candida] zeylanoides) was 1 µg/mL (≈ 2.56 µM). For the same compound, the MIC (Cryptococcus neoformans) was 0.5 µg/mL (≈ 1.28 µM), the MIC (Pichia kudriavzevii) was 1 µg/mL (≈ 2.56 µM) and the MIC (Nakaseomyces glabratus) was 1 µg/mL (≈ 2.56 µM). For the same compound, the MIC (Candida parapsilosis) was 0.25 µg/mL (≈ 0.639 µM), the MIC (Aspergillus fumigatus) was 2 µg/mL (≈ 5.11 µM) and the MIC (Candida albicans [3]) was 2 µg/mL (≈ 5.11 µM). It also gave an MIC (Candida albicans [4]) of 8 µg/mL (≈ 20.4 µM), an MIC (Candida albicans [5]) of 16 µg/mL (≈ 40.9 µM) and an MIC (Candida albicans [6]) of 4 µg/mL (≈ 10.2 µM). The MIC (Candida albicans [7]) was 1 µg/mL (≈ 2.56 µM).

In the case of `Fc1ccc(C(Cn2ccnc2)[Se]Cc2ccccc2)c(F)c1` (stereo not given), the MIC (Candida albicans [1]) is reported as 0.25 µg/mL (≈ 0.663 µM), the MIC (Candida albicans [2]) is reported as 0.13 µg/mL (≈ 0.345 µM) and the MIC ([Candida] zeylanoides) is reported as 0.5 µg/mL (≈ 1.33 µM). The MIC (Cryptococcus neoformans) was 0.5 µg/mL (≈ 1.33 µM), the MIC (Pichia kudriavzevii) was 0.25 µg/mL (≈ 0.663 µM) and the MIC (Nakaseomyces glabratus) was 1 µg/mL (≈ 2.65 µM). For the same compound, the MIC (Candida parapsilosis) was 0.13 µg/mL (≈ 0.345 µM), the MIC (Aspergillus fumigatus) was 1 µg/mL (≈ 2.65 µM) and the MIC (Candida albicans [3]) was 4 µg/mL (≈ 10.6 µM). The MIC (Candida albicans [4]) was 8 µg/mL (≈ 21.2 µM), the MIC (Candida albicans [5]) was 4 µg/mL (≈ 10.6 µM) and the MIC (Candida albicans [6]) was 2 µg/mL (≈ 5.3 µM). It also gave an MIC (Candida albicans [7]) of 64 µg/mL (≈ 170 µM).
